According to patent US10660928B2, “Pharmaceutical composition containing combination extracts of Moutan Root Bark, Angelica Dahurica Root, bupleurum root or fractions thereof for prevention and treatment of neurodegenerative disorder” (UNIVERSITY-INDUSTRY COOPERATION GROUP OF KYUNG HEE …, priority 2014, dated 2020):

Legend:
SH-SY5Y cells = assay: ATP assay, atrazine-induced loss of intracellular ATP; format: cell-based, human; settings: treatment 1 μg/ml, inducer atrazine 50 μg/ml
Method: Particularly, SH-SY5Y cells were cultured by the same manner as described in Experimental Example <1-2>, to which 50 μg/ml of atrazine was treated to induce malfunction of mitochondria. Then, 100 μl of the cell lysate obtained from the cells with the malfunctioned mitochondria was mixed with 100 μl of luciferin-luciferase by using ATP bioluminescent somatic cell assay kit (Sigma, USA), followed by culture at 20° C. for 10 minutes. The supernatant was obtained. Fluorescence signal was measured by using LB 9501 Lumat luminometer (Berthold, Germany). The fluorescence of the control well containing the cell free medium was used as the background. The measured values were calculated by subtracting the background, and the amount of ATP was normalized to the protein concentration. The normal control was not treated with the extract of the invention or the active component thereof but instead treated with DMSO alone. All the results were presented as % by the normal control to present the intracellular ATP level. The negative control was treated with 50 μg/ml of atrazine alone to induce mitochondrial damage and not treated with the extract or the active component thereof. The Intracellular ATP level was measured by the same manner as described above.

[1] = tested on: cytochrome c oxidase subunit III (COX III); assay: RT-PCR of COX III expression, atrazine-damaged cells; format: cell-based, human; settings: 1 μg/ml
Method: (§1) Particularly, SH-SY5Y cells were cultured by the same manner as described in Experimental Example <1-2>, and mitochondrial malfunction was induced. Then, the cells with the malfunctioned mitochondria were suspended in TRIzol (Invitrogen, USA) and total RNA was extracted therefrom according to the manufacturer's protocol. […] PCR was performed with GeneAmp PCR system 9700 (Applied Biosystem, USA) under the required optimum condition by using the synthesized cDNA as a template in the presence of the forward and reverse primers listed in Table 5 below, leading to the amplification of COX III and Park? (DJ-1) genes. The amplified PCR products were electrophoresed on 1.5% agarose gel. The relative concentration was measured by using an image densitometer (Alpha Ease FC software; Alpha Innotech, USA) under UV. The level of mRNA was standardized by comparison with the level of 18S rRNA. The normal control was not treated with the extract of the invention or the active component thereof but instead treated with DMSO alone. The negative control was treated with 50 μg/ml of atrazine alone to induce mitochondrial damage and not treated with the extract or the active component thereof. The gene expression level was investigated by the same manner as described above.

[2] = tested on: SH-SY5Y, the human neuroblastoma cell line; assay: MTT assay, atrazine-induced mitochondria complex 1 damage; format: cell-based; settings: treatment 1 μg/ml, inducer atrazine 50 μg/ml
Method: Particularly, SH-SY5Y, the human neuroblastoma cell line, was inoculated in DMEM/F12 (1:1, Dulbeco's Modified Eagle's Medium & Ham's F12; Gibco, USA) supplemented with 10% FBS, followed by culture in a 37° C., 5% CO2/95% air (O2) incubator. Then, the cultured cells were transferred into a serum free medium at the density of 1×10^5 cells/well. […] Sigma, USA), followed by culture for 4 hours. Then, the MTT formazan precipitate formed by survived cells was dissolved in 100 μl of 0.04 N HCl/isopropanol. OD540 was measured with an ELISA microplate reader (Molecular Devices, USA). The damage of mitochondria complex 1 was confirmed to see how the damage level was either increased or decreased, compared with the normal control group treated with DMSO without the extract or its active component. In the meantime, the negative control group was treated with 50 μg/ml of atrazine alone to induce mitochondrial damage and was not treated with the extract or its active component. Then, MTT assay was performed by the same manner as described above.

[3] = tested on: SH-SY5Y, the human neuroblastoma cell line; assay: Cell survival rate (calcein) in normal cells, cytotoxicity; format: cell-based; settings: 1 μg/ml
Method: Particularly, SH-SY5Y, the human neuroblastoma cell line, was inoculated in DMEM/F12 (Dulbeco's Modified Eagle's Medium & Ham's F12; Gibco, USA) supplemented with 10% FBS, followed by culture in a 37° C., 5% CO2/95% air (O2) incubator. Then, the cultured cells were transferred into a serum free medium at the density of 2.5×10^4 cells/well. […] The cells were collected and the cell survival rate was measured by using calcein. The survival rate of the cells that were increased or decreased compared with that of the normal control cells not-treated with the extract or its active component above and instead treated with DMSO was calculated and presented as percentage (%). Particularly, SH-SY5Y cells were cultured by the same manner as described in Experimental Example <1-1>. The cultured cells were transferred in a serum free medium at the density of 2.5×10^4 cells/well. […] The cells were collected and the cell survival rate was measured by using calcein. The cell survival rate that was increased or decreased compared with that of the normal control group not-treated with the extract or its active component above and instead treated with DMSO was calculated and presented as percentage (%).

Park7 (DJ-1) = assay: RT-PCR of Park7 (DJ-1) expression, atrazine-damaged cells; format: cell-based, human; settings: 1 μg/ml
Method: as §1

BV2 cells [4] = assay: MTT assay, LPS-induced inflammatory response; format: cell-based, mouse; settings: BV2, treatment 1.0 μg/ml, inducer LPS 100 ng/ml
Method: Particularly, BV2 cells were cultured by the same manner as described in Experimental Example <3-1>. Then, the cultured cells were transferred into a serum free medium at the density of 1×10^5 cells/well. The cells were treated with the Bupleurum Root 90% ethanol extract prepared in Example <1-3>, saikosaponin A, saikosaponin B2, saikosaponin B4, or saikosaponin D at the concentration of 1.0 μg/ml, followed by culture for 4 hours. The cells were then treated with 100 ng/ml of lipopolysaccharide (LPS), followed by culture for 20 hours to induce inflammatory response. MTT assay was performed with the cells induced with inflammatory response by the same manner as described in Experimental Example <1-2>. The damage of mitochondria complex 1 was confirmed to see how the damage level was either increased or decreased, compared with the normal control group treated with DMSO without the extract or its active component. In the meantime, the negative control group was treated with 100 ng/ml of LPS alone to induce inflammatory response and was not treated with the extract or its active component. Then, MTT assay was performed by the same manner as described above.

BV2 cells [5] = assay: Griess method, nitric oxide in medium of LPS-induced cells; format: cell-based, mouse; settings: BV2, treatment 1.0 μg/ml, inducer LPS 100 ng/ml
Method: Particularly, BV2 cells were cultured by the same manner as described in Experimental Example <3-1>, and inflammatory response was induced. Then, 100 μl of the cell culture medium was obtained, to which 100 μl of Griess reagent comprising hydrochloric acid containing 5% sulfanilamide and 2% naphthylethylenediamine was added, followed by reaction in a dark room for 30 minutes. Upon completion of the reaction, OD540 was measured with an EISA microplate reader (Versamax, USA). The concentration of nitric oxide in the medium was calculated using the standard calibration curve of sodium nitrite. The normal control was not treated with the extract or the active component thereof but treated with DMSO. The negative control was treated with 100 ng/ml of LPS alone to induce inflammatory response but not treated with the extract or the active component. Then, the nitric oxide concentration reduction effect was investigated by the same manner as described above.
(§2) Particularly, BV2 cells were cultured by the same manner as described in Experimental Example <3-1>, and inflammatory response was induced. Then, 100 μl of the cell culture medium was obtained, to which 100 μl of Griess reagent comprising hydrochloric acid containing 5% sulfanilamide and 2% naphthylethylenediamine was added, followed by reaction in a dark room for 30 minutes. Upon completion of the reaction, OD540 was measured with an EISA microplate reader (Versamax, USA). The concentration of nitric oxide in the medium was calculated using the standard calibration curve of sodium nitrite. To measure the ROS concentration, the cells were treated with 1 μM DCF-DA and 0.05 μM bisbenzimide (Hoechst 33342), followed by staining at 37° C. for 1 hour. After the staining, the fluorescence intensity of DCF-DA was measured at 485 nm/535 nm, and the fluorescence intensity of bisbenzimide was measured at 335 nm/460 nm. Based on the ratio of DCF-DA/bisbenzimide, ROS was quantified. The amount of ROS, either increased or decreased, was compared with that of the normal control not treated with the extract but treated with DMSO, and the results were presented as %. The negative control was treated with 100 ng/ml of LPS alone to induce inflammatory response but not treated with the extract or the active component thereof. Then, the nitric oxide concentration reduction effect and the ROS concentration reduction effect were investigated by the same manner as described above.

interleukin-6, (IL-6) = assay: RT-PCR of IL-6 mRNA, LPS-induced cells; format: cell-based, mouse; settings: BV2, treatment 1.0 μg/ml, LPS 100 ng/ml; negative control 100.00
Method: (§3) Particularly, BV2 cells were cultured by the same manner as described in Experimental Example <3-1>, and inflammatory response was induced. Then, RT-PCR was performed with the cells by the same manner as described in Experimental Example <1-4>, followed by quantitative analysis of the expression levels of iNOS, IL-6, and NF-kB p65/ReIA genes. The normal control was not treated with the extract of the invention or the active component thereof but treated with DMSO alone. The negative control was not treated with the extract or the active component but treated with 100 ng/ml of LPS alone to induce inflammatory response. Then, the expression of the inflammatory response marker gene was confirmed by the same manner as described above.

BV2 cells [6] = assay: DCF-DA intracellular ROS, LPS-induced cells; format: cell-based, mouse; settings: BV2, treatment 1.0 μg/ml, inducer LPS 100 ng/ml
Method: Particularly, BV2 cells were cultured by the same manner as described in Experimental Example <3-1>, and inflammatory response was induced. Then, the cells induced with inflammatory response were treated with 1 μM DCF-DA and 0.05 μM bisbenzimide (Hoechst 33342), followed by staining at 37° C. for 1 hour. After the staining, the fluorescence intensity of DCF-DA was measured at 485 nm/535 nm, and the fluorescence intensity of bisbenzimide was measured at 335 nm/460 nm. Based on the ratio of DCF-DA/bisbenzimide, ROS was quantified. The amount of ROS, either increased or decreased, was compared with that of the normal control not treated with the extract or the active component thereof but treated with DMSO, and the results were presented as %. The negative control was treated with 100 ng/ml of LPS alone to induce inflammatory response but not treated with the extract or the active component thereof. Then, the generation of ROS was investigated by the same manner as described above.
as §2

[7] = tested on: inducible nitric oxide synthase (iNOS); assay: RT-PCR of iNOS mRNA, LPS-induced cells; format: cell-based, mouse; settings: BV2, treatment 1.0 μg/ml, LPS 100 ng/ml; negative control 100.00
Method: as §3

NF-kB p65/ReIA = assay: RT-PCR of NF-kB p65/ReIA mRNA, LPS-induced cells; format: cell-based, mouse; settings: BV2, treatment 1.0 μg/ml, LPS 100 ng/ml; negative control 100.00
Method: as §3

[8] = normal SH-SY5Y cells, 4 hours, calcein

| SMILES | Intracellular ATP content (% of control) (SH-SY5Y cells) | COX III/18S rRNA ([1]; with atrazine) | COX III/18S rRNA ([1]; without atrazine) | MTT (% of control) [2] | Cell survival rate (% of control) ([3]; human, 4 h) | Park7(DJ-1)/18S rRNA (Park7 (DJ-1); with atrazine) | Park7(DJ-1)/18S rRNA (Park7 (DJ-1); without atrazine) | Cell survival rate (% of control) [3, 8] | MTT (% of control) (BV2 cells [4]) | NO (BV2 cells [5]) | IL-6 mRNA (% of control) (interleukin-6, (IL-6)) | DCF-DA-ROS (% of control) (BV2 cells [6]) | iNOS mRNA (% of control) [7] | p65/ReIA mRNA (% of control) (NF-kB p65/ReIA) |
| --- | --- | --- | --- | --- | --- | --- | --- | --- | --- | --- | --- | --- | --- | --- |
| C[C@@]12CC(=O)[C@H]3C[C@]1(O)O[C@H](O2)[C@@H]3COC(=O)c1ccccc1 [paeoniflorigenone, [(2s,3as,5s,7ar,8s)-3a-hydroxy-7a-methyl-6-oxohexahydro-2,5-methano-1,3-benzodioxol-8-yl]methyl benzoate] | 89.1 ± 7.97 % of control | 0.86 ± 0.07 | 1.04 ± 0.05 | 95.5 ± 6.09 % of control | 98.9 ± 8.10 % of control | 0.45 ± 0.02 | 0.98 ± 0.08 |  |  |  |  |  |  |  |
| C[C@@]12C[C@@]3(O)O[C@@H](O1)[C@]1(COC(=O)c4ccccc4)[C@H]3C[C@@]12O[C@@H]1O[C@H](CO)[C@@H](O)[C@H](O)[C@H]1O [paeoniflorin] | 94.3 ± 6.44 % of control | 0.92 ± 0.08 | 1.11 ± 0.04 | 96.4 ± 7.44 % of control |  | 2.03 ± 0.07 | 1.05 ± 0.08 | 97.9 ± 7.34 % of control |  |  |  |  |  |  |
| COc1ccc(C(C)=O)c(O)c1 [Paeonol, 2′-Hydroxy-4′-methoxyacetophenone] | 101.9 ± 7.42 % of control | 1.07 ± 0.07 | 1.05 ± 0.03 | 101.8 ± 7.21 % of control |  | 0.95 ± 0.07 | 1.22 ± 0.08 | 102.2 ± 9.10 % of control |  |  |  |  |  |  |
| C[C@H]1O[C@@H](O[C@H]2CC[C@@]3(C)[C@@H](CC[C@]4(C)[C@@H]3C=C[C@]35OC[C@@]6(CCC(C)(C)C[C@H]63)[C@@H](O)C[C@]54C)[C@]2(C)CO)[C@H](O)[C@@H](O[C@@H]2O[C@H](CO)[C@@H](O)[C@H](O)[C@H]2O)[C@H]1O [saikosaponin A, (3beta,4alpha,16beta)-13,28-Epoxy-16,23-dihydroxyolean-11-en-3-yl-6-deoxy-3-O-beta-D-glucopyranosyl-beta-D-galactopyranoside] |  |  |  |  |  |  |  |  | 91.49 ± 6.20 % of control | 10.8 ± 3.6 µM | 18.05 ± 1.23 % of control | 198.24 ± 3.72 % of control | 14.85 ± 1.47 % of control | 40.38 ± 1.05 % of control |
